This note sets out measurements from patent US8481716B2 (Wacker Chemie AG, priority 2004, dated 2013).

Type in all cases: physicochemical
Series [1] can be described thus: Temperature stability at 25° C. The conditions noted are these: for Content ALA: 25° C. As for the experimental part: Alpha lipic acid/cyclodextrin complexes were stored in a closed polypropylene container at 25° C.
The nature of series [2]: Differential Scanning Calorimetry analysis for uncomplexed alpha-lipoic acid. The conditions noted are these: DSC. The protocol:
Cyclodextrin complexes (3-6 mg sample size) were analyzed using Differential Scanning Calorimeter (DSC). […] This peak, if present, was compared to a peak at this temperature of pure alpha-lipoic acid to calculate percentage of uncomplexed alpha-lipoic acid in the complex. […] The peak around 60° C. decreases with increasing degree of complexation.

Series [3] in a line: Temperature stability at 40° C.
Series [4] is described as follows: Temperature stability at 100° C.
The mark [5] stands for this setting: closed polypropylene container, 0 days of storage, initial content set to 100%.

Take `O=C(O)CCCCC1CCSS1` (stereo not drawn) [Pure ALA, Alpha-lipoic acid]: the “stability at room temperature” value in series [1] (25° C. storage) was “stable at room temperature”. Besides, the “Content ALA” value in series [1] (39 days of storage) is on record as 100%; in series [1] (67 days of storage), 100%; in series [1] (107 days of storage), 100%; in series [1] (setting [5]), 100%; in series [3] (8 days of storage), 99%; in series [3] (39 days of storage) it was 48*) %. In addition, the “Content ALA” value was 41*) % in series [3] (81 days of storage); 100 ^ % in series [3] (setting [5]); 38% in series [4] (3 days of storage); 13% in series [4] (11 days of storage); 4% in series [4] (28 days of storage); 0% in series [4] (36 days of storage). In series [4] (closed glass containers, 0 days of storage, initial content set to 100%), the “Content ALA” value stood at 100%. Further, the “Non Complexed ALA” value in series [2] (melting peak around 60° C. compared to pure ALA) amounted to 100%. Further, the “Complexed ALA” value in series [2] (complexed ALA in product) was 0.0%.
